Source: patent publication US20090286725A1, “PEPTIDES AND DERIVATIVES THEREOF, THE MANUFACTURING THEREOF AS WELL AS THEIR USE FOR PREPARING A THERAPEUTICALLY AND/OR PREVENTIVELY ACTIVE PHARMACEUTICAL COMPOSITION” (FIBREX MEDICAL RESEARCH & DEVELOPMENT GMBH, priority 2008, published 2009)
No end group written: not given here.

T1: vascular endothelial (VE) cadherin (human, UniProt P33151 48-784)
T1 sequence (looked up): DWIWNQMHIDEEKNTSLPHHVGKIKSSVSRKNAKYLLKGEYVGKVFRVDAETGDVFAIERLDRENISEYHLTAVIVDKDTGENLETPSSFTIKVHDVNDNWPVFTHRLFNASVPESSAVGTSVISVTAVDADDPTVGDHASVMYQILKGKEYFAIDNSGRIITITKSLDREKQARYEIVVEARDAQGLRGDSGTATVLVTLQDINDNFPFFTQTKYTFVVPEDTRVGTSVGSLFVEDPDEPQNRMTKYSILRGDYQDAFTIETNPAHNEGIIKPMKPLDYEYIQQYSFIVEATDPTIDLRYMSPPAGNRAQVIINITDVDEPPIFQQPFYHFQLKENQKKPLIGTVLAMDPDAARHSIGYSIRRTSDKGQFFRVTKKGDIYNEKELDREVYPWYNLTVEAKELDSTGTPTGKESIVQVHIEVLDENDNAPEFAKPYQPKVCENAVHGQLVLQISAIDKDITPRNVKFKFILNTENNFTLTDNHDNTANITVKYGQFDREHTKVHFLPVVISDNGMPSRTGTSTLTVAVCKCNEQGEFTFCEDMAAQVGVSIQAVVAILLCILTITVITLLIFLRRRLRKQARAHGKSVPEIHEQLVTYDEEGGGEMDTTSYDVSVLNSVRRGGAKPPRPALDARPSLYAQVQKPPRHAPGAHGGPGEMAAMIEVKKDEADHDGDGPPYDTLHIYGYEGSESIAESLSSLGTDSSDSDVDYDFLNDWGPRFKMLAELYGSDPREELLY


What was measured:
RhoA = assay: thrombin induced RhoA activation in HUVEC culture (Rho pull-down, Western blot); format: cell-based, human; conditions: 5 U/ml thrombin alone, 5 min
Description: The biological effect of the compounds was established in a model thrombin induced RhoA activation in human umbilical vein endothelial cell (HUVEC) culture.
HUVEC are grown to confluence under standard conditions. Before induction of Rho activity HUVEC were starved for 4 h by using IMDM (Gibco) without growth factor and serum supplements. After the starvation period 5 U/ml Thrombin (Calbiochem) or 5 U thrombin plus 50 μg/ml of test compound are added to the starvation medium for 1, 5 and 10 min. Active RhoA was isolated using Rho Assay Reagent from Upstate according to manufactures instructions. Isolates were separated on a 15% polyacrylamid gel and blotted on Nitrocellulose-Membrane (Bio-Rad). RhoA was dedected by using Anti-Rho (-A, -B, -C), clone55 from Upstate (1:500).

[1] = target: T1, vascular endothelial (VE) cadherin; assay: cell-based or functional assay

Molecule	Relative RhoA stimulation compared to unstimulated control (RhoA)	Relative RhoA stimulation compared to unstimulated control [1]
thrombin	3.8	–
GHRPLDKKREEAPSLRPAPPPISGG-OH	–	0.85 fold of unstimulated control
